US20230043198A1, “MICROBIOTA METABOLITES THAT SHAPE HOST PHYSIOLOGY” (Yale University, priority 2018, published 2023)
Read-outs that look alike come from different tables or passages of the source. One block for each compound: values may come before it.

Experiments:
GPR56/AGRG1 = GPR56/AGRG1 (Homo sapiens, UniProt Q9Y653); test: GPR56 PRESTO-Tango; conditions: titrating doses of pure amino acid
colon motility [1] = test: Intestinal motility by fecal output; type: in vivo, C57Bl/6 mice; conditions: M. morganii colonized mice, 1% L-His in water for 2 weeks
GPR97/AGRG3 = GPR97/AGRG3 (Homo sapiens, UniProt Q86Y34); test: GPR97 PRESTO-Tango; conditions: titrating doses of pure amino acid
[2] = target: GPR56-ANT (a mutant lacking the extracellular domain) (Homo sapiens, UniProt Q9Y653); test: PRESTO-Tango on GPR56 truncation mutant; conditions: titrating doses of L-Phe
DRD2 [3] = target: T1, DRD2 (Homo sapiens, UniProt P14416); test: DRD2 PRESTO-Tango; type: cell-based; conditions: pure ligand
colon motility [4] = conditions: rodents; cited from earlier work
DRD2 [5] = target: T1, DRD2; conditions: for phenethylamine as measured by DRD2 activation by cecal and colonic extracts: L-Phe deficient diet, MAOI
DRD3 = DRD3 (Homo sapiens, UniProt P35462); test: DRD3 PRESTO-Tango; type: cell-based; conditions: pure ligand
DRD4 = target: T2, DRD4 (Homo sapiens, UniProt P21917); test: DRD4 PRESTO-Tango; type: cell-based; conditions: pure ligand
T2 sequence (P21917 1-419): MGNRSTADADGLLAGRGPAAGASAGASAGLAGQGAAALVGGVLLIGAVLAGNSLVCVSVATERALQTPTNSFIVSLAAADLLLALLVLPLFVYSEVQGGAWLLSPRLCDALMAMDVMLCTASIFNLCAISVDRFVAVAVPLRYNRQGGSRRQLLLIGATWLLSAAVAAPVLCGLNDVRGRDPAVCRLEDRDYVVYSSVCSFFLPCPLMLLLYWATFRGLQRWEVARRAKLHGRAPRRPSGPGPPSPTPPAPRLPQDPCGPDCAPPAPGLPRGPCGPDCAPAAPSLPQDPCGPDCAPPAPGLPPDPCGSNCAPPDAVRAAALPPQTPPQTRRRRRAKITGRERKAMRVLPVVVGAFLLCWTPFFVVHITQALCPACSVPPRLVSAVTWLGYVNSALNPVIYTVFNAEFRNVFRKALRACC

[6] = in vivo; cited from earlier work

T1 sequence (P14416 whole entry): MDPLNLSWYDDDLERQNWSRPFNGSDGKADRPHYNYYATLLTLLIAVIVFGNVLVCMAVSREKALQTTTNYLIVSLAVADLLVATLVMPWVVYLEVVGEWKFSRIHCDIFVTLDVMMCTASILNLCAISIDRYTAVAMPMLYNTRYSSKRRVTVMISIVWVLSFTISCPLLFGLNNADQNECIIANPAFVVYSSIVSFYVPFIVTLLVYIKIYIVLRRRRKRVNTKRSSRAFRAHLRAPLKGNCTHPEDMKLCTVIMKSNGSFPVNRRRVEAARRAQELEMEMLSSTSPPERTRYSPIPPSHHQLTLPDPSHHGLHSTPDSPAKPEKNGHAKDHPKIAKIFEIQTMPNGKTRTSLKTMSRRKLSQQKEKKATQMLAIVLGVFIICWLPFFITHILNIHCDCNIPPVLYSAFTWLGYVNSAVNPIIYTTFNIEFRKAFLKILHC
Sequence of GPR56/AGRG1 (Q9Y653 26-693): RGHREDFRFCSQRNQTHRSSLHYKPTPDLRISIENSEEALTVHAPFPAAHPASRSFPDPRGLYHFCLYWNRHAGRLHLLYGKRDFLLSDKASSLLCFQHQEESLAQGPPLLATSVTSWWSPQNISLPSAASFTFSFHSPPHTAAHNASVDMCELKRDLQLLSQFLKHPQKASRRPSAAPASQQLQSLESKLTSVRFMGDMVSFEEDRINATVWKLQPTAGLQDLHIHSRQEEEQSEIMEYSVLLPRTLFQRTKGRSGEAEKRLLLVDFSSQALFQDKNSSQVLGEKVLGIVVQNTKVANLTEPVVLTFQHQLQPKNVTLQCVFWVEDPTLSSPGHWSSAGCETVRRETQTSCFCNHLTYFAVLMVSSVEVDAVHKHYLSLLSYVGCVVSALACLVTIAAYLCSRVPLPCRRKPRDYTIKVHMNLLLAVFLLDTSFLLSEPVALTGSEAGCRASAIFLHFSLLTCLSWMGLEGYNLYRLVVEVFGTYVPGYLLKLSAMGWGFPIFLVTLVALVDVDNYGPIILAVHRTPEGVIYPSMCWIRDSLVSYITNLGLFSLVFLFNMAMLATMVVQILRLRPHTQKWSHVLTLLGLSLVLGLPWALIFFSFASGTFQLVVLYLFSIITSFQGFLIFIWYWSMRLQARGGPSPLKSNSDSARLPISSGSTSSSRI
Sequence of DRD3 (P35462 whole entry): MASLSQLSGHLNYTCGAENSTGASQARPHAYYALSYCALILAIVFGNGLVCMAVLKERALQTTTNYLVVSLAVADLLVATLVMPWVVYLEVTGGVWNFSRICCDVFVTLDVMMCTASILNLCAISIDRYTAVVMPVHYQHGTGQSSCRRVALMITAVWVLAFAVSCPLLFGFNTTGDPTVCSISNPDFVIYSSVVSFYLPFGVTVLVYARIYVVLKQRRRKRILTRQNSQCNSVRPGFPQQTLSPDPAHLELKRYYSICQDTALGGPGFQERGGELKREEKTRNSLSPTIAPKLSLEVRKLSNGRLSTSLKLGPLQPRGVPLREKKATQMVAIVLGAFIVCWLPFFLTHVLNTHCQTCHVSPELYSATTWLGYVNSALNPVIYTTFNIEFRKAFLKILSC
Sequence of GPR56-ANT (a mutant lacking the extracellular domain) (Q9Y653 383-693 limits assumed, change not shown): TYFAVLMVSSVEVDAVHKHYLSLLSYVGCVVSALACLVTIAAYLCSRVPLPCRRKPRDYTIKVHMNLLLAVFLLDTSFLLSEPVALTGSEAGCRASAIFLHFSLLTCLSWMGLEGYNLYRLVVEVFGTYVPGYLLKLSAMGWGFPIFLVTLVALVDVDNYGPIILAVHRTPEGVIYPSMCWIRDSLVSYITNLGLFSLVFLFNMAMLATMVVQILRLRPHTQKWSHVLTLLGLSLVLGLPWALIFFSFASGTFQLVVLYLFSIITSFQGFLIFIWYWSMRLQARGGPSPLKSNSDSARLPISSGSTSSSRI
Sequence of GPR97/AGRG3 (Q86Y34 21-549): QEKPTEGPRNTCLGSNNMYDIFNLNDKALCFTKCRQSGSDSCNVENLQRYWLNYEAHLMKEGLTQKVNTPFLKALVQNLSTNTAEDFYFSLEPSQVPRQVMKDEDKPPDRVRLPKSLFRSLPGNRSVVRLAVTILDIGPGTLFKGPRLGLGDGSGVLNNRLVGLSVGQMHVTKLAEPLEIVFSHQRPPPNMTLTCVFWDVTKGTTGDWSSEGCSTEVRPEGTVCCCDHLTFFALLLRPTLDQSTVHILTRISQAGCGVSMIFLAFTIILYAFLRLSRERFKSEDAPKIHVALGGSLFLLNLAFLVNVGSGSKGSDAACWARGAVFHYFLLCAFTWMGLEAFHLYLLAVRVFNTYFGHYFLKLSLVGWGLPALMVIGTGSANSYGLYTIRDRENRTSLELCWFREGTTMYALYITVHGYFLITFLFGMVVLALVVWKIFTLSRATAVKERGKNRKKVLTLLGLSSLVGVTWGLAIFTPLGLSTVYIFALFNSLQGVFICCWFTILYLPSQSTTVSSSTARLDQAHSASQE

SMILES: N[C@H](Cc1c[nH]cn1)C(=O)O [D-His]
- activation of GPR56/AGRG1 (GPR56/AGRG1): no activity

SMILES: N[C@H](Cc1ccccc1)C(=O)O [D-Phe]
- activation of GPR56/AGRG1 (GPR56/AGRG1): no activity

SMILES: N[C@H](Cc1c[nH]c2ccccc12)C(=O)O [D-Trp]
- activation of GPR56/AGRG1 (GPR56/AGRG1): no activity

SMILES: N[C@H](Cc1ccc(O)cc1)C(=O)O [D-Tyr]
- activation of GPR56/AGRG1 (GPR56/AGRG1): no activity

SMILES: NCCc1c[nH]cn1 [histamine, Histamine]
- effect of oral gavage on colon motility (colon motility [4]): increase colon motility

SMILES: NNCCc1ccccc1 [phenelzine]
- onset of lethargy after MAOI treatment (C57Bl/6, mouse, in vivo): ≤ 4 days
- mortality after treatment with MAOI (mice colonized with M. morganii, died before the seventh day of treatment): more than half
- health after MAOI treatment (mouse, in vivo): remained healthy
- health after treatment with MAOI (mouse, in vivo): appeared healthy
- morbidity after treatment with MAOI (mouse, in vivo): lethargic within days
- DRD2 activation by cecal and colonic contents and serum (DRD2 [5]; MAOI-treated M. morganii colonized mice): activated DRD2
- phenethylamine as measured by DRD2 activation by cecal and colonic extracts (DRD2 [5]; mice bi-colonized with C34 and M. morganii): significant levels of phenethylamine
- phenethylamine as measured by DRD2 activation by cecal and colonic extracts (DRD2 [5]; mice colonized with M. morganii alone): minimal phenethylamine

SMILES: NCCc1ccccc1 [phenethylamine, Phenethylamine]
- activation of DRD2 (DRD2 [3]): selective DRD2/DRD3/DRD4 agonists
- activation of DRD3 (DRD3): selective DRD2/DRD3/DRD4 agonists
- activation of DRD4 (DRD4): selective DRD2/DRD3/DRD4 agonists
- crossing of the blood-brain barrier [6]: can readily cross

More lines, main results first:

- activation of GPR56/AGRG1 (GPR56/AGRG1): no activity
SMILES: N[C@@H](Cc1c[nH]cn1)C(=O)O [L-His, L-histidine]
- fecal output upon supplementation with L-His (colon motility [1]): further increased

- activation of GPR56/AGRG1 (GPR56/AGRG1): stereoselectively activated
- activation of GPR97/AGRG3 (GPR97/AGRG3): activated
- response of GPR56/AGRG1 truncation mutant lacking the extracellular domain [2]: failed to respond
SMILES: N[C@@H](Cc1ccccc1)C(=O)O [L-Phe, L-phenylalanine]

- activation of GPR56/AGRG1 (GPR56/AGRG1): no activity
SMILES: N[C@@H](Cc1c[nH]c2ccccc12)C(=O)O [L-Trp, L-tryptophan]

- activation of DRD2 (DRD2 [3]): efficiently activated
SMILES: NCCc1ccc(O)c(O)c1 [dopamine, Dopamine]

- activation of DRD2 (DRD2 [3]): selective DRD2/DRD3/DRD4 agonists
- activation of DRD3 (DRD3): selective DRD2/DRD3/DRD4 agonists
- activation of DRD4 (DRD4): selective DRD2/DRD3/DRD4 agonists
SMILES: NCCc1ccc(O)cc1 [tyramine, Tyramine]
